Experimental data: EP2141163A1, “Substituted thiazolidinones, their production and utilisation as medicine” (Bayer Schering Pharma Aktiengesellschaft, priority 2008, dated 2010)
Where two headings read alike, the source gives them in different places.

Columns and labels:
PLK-1 = target: T1, PLK-1 (Homo sapiens, UniProt P53350); experiment: PLK-1 enzyme assay at 10 mM ATP (indirect HTRF assay); format: biochemical; details: read-out: Inhibition PLK-1 IC50 [M] (10 mM ATP)
T1 construct: Fusionsprotein bestehend aus GST und Plk (Kinase Domäne 33-345; MW 36 kDa, conc 0,8 µg/µl); GST; made in house; host or cells: Hi5 insect cells
T1 sequence (P53350 33-345): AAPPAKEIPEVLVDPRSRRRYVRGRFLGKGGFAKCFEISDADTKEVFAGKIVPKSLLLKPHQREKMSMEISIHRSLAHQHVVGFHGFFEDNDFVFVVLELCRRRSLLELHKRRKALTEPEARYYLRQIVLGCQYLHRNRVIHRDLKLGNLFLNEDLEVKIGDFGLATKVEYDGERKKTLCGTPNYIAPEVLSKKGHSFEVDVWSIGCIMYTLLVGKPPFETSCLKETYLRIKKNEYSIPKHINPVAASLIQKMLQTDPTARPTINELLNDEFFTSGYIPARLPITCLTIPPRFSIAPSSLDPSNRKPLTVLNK
Method: PLK Enzym-Assay (10 mM ATP)
Für den Kinaseassay wird aus Insektenzellen (Hi5) exprimiertes, durch Glutathion-Sepharose-Affinitätschromatographie und anschließender Gel-filtration (Suerdex 75) gereinigtes rekombinantes Fusionsprotein bestehend aus GST und Plk (Kinase Domäne 33-345; MW 36 kDa, conc 0,8 µg/µl) verwendet. Aliqots hiervon werden in flüssigem Stickstoff weggefroren und bei -80°C gelagert und nach dem Auftauen nur einmal verwendet.
Bei dem verwendeten Assay handelt es sich um einen indirekten HTRF-Assay, bei dem folgende Materialien und Verfahrensweisen zum Einsatz kamen. Als Substrat für die Kinasereaktion wird das biotinylierte Peptid Btn-Ahx-KKLNRTLSFAEPG-Amid x TFA, von Biosyntan, Probennr.: 6178.1 (C-Terminus in Amidform) verwendet. Hierbei handelt es sich um eine artifizielle Sequenz, die von keinem bekannten Protein abgeleitet wurde.
50 nl der in 100% Dimethylsulfoxid (DMSO) gelösten Testverbindungen (Endkonzentrationen : 0 µM und Konzentrationen im Bereich von 0,001 - 20 µM) werden mit 2 µl Enzym Arbeitslösung (0,039 ng/µl Plk-1 im Arbeitspuffer [25 mM MgCl2; 1mM DTT; 50 mM Hepes pH 7,0; 0,01% NP40; 1x Complete; 0,05% BSA] für 30 min vorinkubiert. Anschließend wird die Kinase-Reaktion durch Zugabe von 3 µl Substratlösung [16,7 mM Adenosintriphosphate (ATP) und 1,4 µM Substratpeptid (Biotin-Ttds- KKLNRTLSFAEPG -NH2)] in Arbeitspuffer gestartet, und nach 30 min durch Zugabe einer Abstopp-Lösung (100 mM EDTA, 100 mM Hepes pH 7,5, 800 mM Potassiumfluoride, 0,12% BSA, 0,4 µM SA-XLent (0,05 µM, von CIS bio international, Marcoule, Frankreich), Eu^3+ Cryptate-conjugated Rabbit anti-Mouse IgG (1,5 nM; ein mit Europiumkryptat markierter Anti-Maus-IgG-Antikörper von CIS bio international, Marcoule, Frankreich), 1 nM Anti-phospho-Serine Kinase (ein phospho-spezifischer Antikörper von Upstate Biotechnology, Dundee, Schottland), gestoppt, und bei 4°C über Nacht inkubiert. Danach wird die Menge des phosphorylierten Substratpeptids durch Messung des Resonanzenergietransfers vom Europium-markierten Antikörperkomplex zum Streptavidine-XLent bestimmt. Zu diesem Zweck wird die Fluoreszenzemission bei 620 nm und 665 nm nach Anregung bei 350 nm in einem HTRF-Messgerät, z. B. Rubystar (BMG Labtechnologies, Offenburg, Deutschland) oder Viewlux (Perkin-Elmer), bestimmt. Das Verhältnis der Emissionen bei 665 nm und bei 620 nm wird als Maß für die Menge des phosphorylierten Substratpeptids verwendet. Die Daten werden normalisiert (Enzymreaktion ohne Inhibitor = 0 % Inhibition, alle anderen Assaykomponenten, aber kein Enzym = 100 % Inhibition), und IC50-Werte werden durch einen 4 Parameter-Fit mit einer hauseigenen Software berechnet.

MCF-7 = experiment: Proliferation assay (crystal violet staining), MCF-7; format: cell-based, human; details: tumour cell proliferation, 4 days incubation, read-out: Inhibition IC50 [M] (MCF-7)
Method: (§1) Kultivierte humane Tumorzellen (MCF7, […] menschliche Mammakarzinomazellen, bezogen von ATCC HTB22; NCI-H460, menschliche nicht kleinzellige Lungenkarzinomazellen, ATCC HTB-177; DU 145, hormonunabhängige menschliche Prostatakarzinomazellen, ATCC HTB-81; HeLa-MaTu, humane Cervixkarzinomazellen, bezogen von EPO-GmbH, Berlin,) werden in einer Dichte von 5000 (MCF7, DU145) bzw. 3000 (NCI-H460, HeLa-MaTu) Zellen/Messpunkt in einer 96-Loch Multititerplatte in 200 µl des entsprechenden Wachstumsmediums ausplattiert. Nach 24 Stunden werden die Zellen einer Platte (Nullpunkt-Platte) mit Kristallviolett gefärbt (s.u.), während das Medium der anderen Platten durch frisches Kulturmedium (200 µl), dem die Testsubstanzen in verschiedenen Konzentrationen (0 µM, sowie im Bereich 0,01 - 30 µM; die finale Konzentration des Lösungsmittels Dimethylsulfoxid beträgt 0,5%) zugesetzt sind, ersetzt. Die Zellen werden für 4 Tage in Anwesenheit der Testsubstanzen inkubiert. Die Zellproliferation wird durch Färbung der Zellen mit Kristallviolett bestimmt: Die Zellen werden durch Zugabe von 20 µl/Messpunkt einer 11%igen Glutaraldehyd-Lösung 15 min bei Raumtemperatur fixiert. Nach dreimaligem Waschen der fixierten Zellen mit Wasser werden die Platten bei Raumtemperatur getrocknet. Die Zellen werden durch Zugabe von 100 µl/Messpunkt einer 0,1%igen Kristallviolett-Lösung (pH durch Zugabe von Essigsäure auf pH3 eingestellt) gefärbt. Nach dreimaligem Waschen der gefärbten Zellen mit Wasser werden die Platten bei Raumtemperatur getrocknet. Der Farbstoff wird durch Zugabe von 100 µl/Messpunkt einer 10%igen Essigsäure-Lösung gelöst. Die Extinktion wird photometrisch bei einer Wellenlänge von 595 nm bestimmt. Die prozentuale Änderung des Zellwachstums wird durch Normalisierung der Messwerte auf die Extinktionwerte der Nullpunktplatte (=0%) und die Extinktion der unbehandelten (0 µM) Zellen (=100%) berechnet. IC50-Werte werden nach einer 4-Parameterkurvenanpassung mit Hilfe eines Firmeneigenen Computerprogramms berechnet.

DU145 = experiment: Proliferation assay (crystal violet staining), DU145; format: cell-based, human; details: tumour cell proliferation, 4 days incubation, read-out: Inhibition IC50 [M] (DU145)
Method: as §1

NCI-H460 = experiment: Proliferation assay (crystal violet staining), NCI-H460; format: cell-based, human; details: tumour cell proliferation, 4 days incubation, read-out: Inhibition IC50 [M] (NCI-H460)
Method: as §1

| IC50 (MCF-7) [M] | IC50 (DU145) [M] | IC50 (NCI-H460) [M] | SMILES | IC50 (PLK-1) [M] | IC50 (MCF-7; Homo sapiens, MCF7, 96 h) [M] | IC50 (DU145; Homo sapiens, DU-145, 96 h) [M] | IC50 (NCI-H460; Homo sapiens, 96 h) [M] |
| --- | --- | --- | --- | --- | --- | --- | --- |
| – | – | – | CCn1c(=O)c(=CNc2ccc3ccn([C@H]4CCCC[C@H]4N(C)C)c3c2)s/c1=C(/C#N)C(=O)NCC#N (relative stereo) [B193] | 1.4e-08 | 1.8e-07 | 1.8e-07 | 2.6e-07 |
| – | – | – | CCn1c(=C(C#N)C(=O)NCC(F)(F)F)sc(=CNc2ccc3c(c2)N(C2CCN(C)CC2)CC3)c1=O [B01] | 5.7e-09 | 4.4e-07 | 1.3e-07 | 1.9e-07 |
| 1.4e-07 | 5.1e-08 | 9.6e-08 | CCn1c(=O)c(=CNc2ccc3ccn(C4CCN(C)CC4)c3c2)s/c1=C(/C#N)C(=O)NCC(F)(F)F [B03, (Z,E/Z)-2-Cyan-2-[3-ethyl-5-[[[1-(1-methyl-4-piperidinyl)-1H-indol-6-yl]amino]methylen]-4-oxo-2-thiazolidinyliden]-N-(2,2,2-trifluorethyl)acetamid] | 1.6e-09 | – | – | – |
| – | – | – | CCn1c(=C(C#N)C(=O)NCC#N)sc(=CNc2ccc3ccn(C4CCN(C)CC4)c3c2)c1=O [B04] | 2.9e-09 | 7.2e-08 | 2.9e-08 | 1.4e-07 |
| – | – | – | CCn1c(=C(C#N)C(=O)NC(C)(C)CO)sc(=CNc2ccc3ccn(C4CCN(C)CC4)c3c2)c1=O [B06] | 1e-08 | 2.4e-07 | 1.2e-07 | 1.5e-07 |
| – | – | – | CCn1c(=O)c(=CNc2ccc3c(CN4CCCCC4)cn(C)c3c2)s/c1=C(/C#N)C(=O)NCC#N [B08] | 5.4e-09 | 6.1e-07 | 1.4e-07 | 3.3e-07 |
| – | – | – | CCn1c(=O)c(=CNc2ccc3c(c2)c(CCN2CCCC2)cn3C)s/c1=C(/C#N)C(=O)NCC(F)(F)F [B35] | 5.9e-09 | 6.4e-07 | 1.8e-07 | 3.3e-07 |
| – | – | – | CCn1c(=C(C#N)C(=O)NCC(F)(F)F)sc(=CNc2ccc3c(c2)c(CCN(C)C)cn3C)c1=O [B39] | 6.1e-09 | 3.8e-07 | 1.8e-07 | 4.8e-07 |
| – | – | – | CCn1c(=C(C#N)C(=O)NCC#N)sc(=CNc2ccc3cnn(C4CCN(C(C)C)CC4)c3c2)c1=O [B44] | 1.1e-09 | 2e-07 | 1.1e-07 | 4.9e-07 |
| – | – | – | CCN1CCCC1Cn1ccc2ccc(NC=c3sc(=C(C#N)C(=O)NCC(F)(F)F)n(CC)c3=O)cc21 (stereo not drawn) [B58] | 2e-08 | 3.7e-07 | 3.2e-07 | 4.8e-07 |
| – | – | – | CCn1c(=C(C#N)C(=O)NCC(F)(F)F)sc(=CNc2ccc3ccn(C4CCOCC4)c3c2)c1=O [B59] | 3.7e-08 | 3.9e-07 | 1.7e-07 | 1.8e-07 |
| – | – | – | CCn1c(=C(C#N)C(=O)NCC(F)(F)F)sc(=CNc2ccc3ccn(C4CCN(CC(N)=O)CC4)c3c2)c1=O [B71] | 8.2e-09 | 1.4e-07 | 1.2e-07 | 2.1e-07 |
| – | – | – | CCn1c(=C(C#N)C(=O)NCC(F)(F)F)sc(=CNc2ccc3ccn(C4CCN(CC(=O)OC)CC4)c3c2)c1=O [B72] | 3.9e-09 | 1.2e-07 | 1.2e-07 | 1.1e-07 |
| – | – | – | CCn1c(=C(C#N)C(=O)NCC(F)(F)F)sc(=CNc2ccc3ccn(CC(=O)N(C)C)c3c2)c1=O [B80] | 4.9e-08 | 3.1e-07 | 5.1e-07 | 8.9e-07 |
| – | – | – | CCn1c(=C(C#N)C(=O)NCC#N)sc(=CNc2ccc3cn(C4CCN(C(C)C)CC4)nc3c2)c1=O [B102] | 2.2e-08 | 1.9e-07 | 2.8e-07 | 6.2e-07 |
| – | – | – | CCCN1CCC(c2cn(CC)c3ccc(NC=c4sc(=C(C#N)C(=O)NCC#N)n(CC)c4=O)cc23)CC1 [B109] | 3.5e-09 | 1.4e-07 | 5.4e-08 | 1.6e-07 |
| – | – | – | CCn1c(=C(C#N)C(=O)NCC#N)sc(=CNc2ccc3c(c2)c(C2CCN(C4CC4)CC2)cn3C)c1=O [B115] | 1.3e-09 | 1.1e-07 | 3.7e-08 | 1.3e-07 |
| – | – | – | CCn1c(=O)c(=CNc2ccc3c(c2)c(C2CCN(C)CC2)cn3C)s/c1=C(/C#N)C(=O)NCC(F)(F)F [B118, (Z,E/Z)-2-Cyan-2-[3-ethyl-5-[[[1-methyl-3-(1-methyl-4-piperidinyl)-1H-indol-5-yl]amino]methylen]-4-oxo-2-thiazolidinyliden]-N-(2,2,2-trifluorethyl)acetamid] | 2.1e-09 | 2.9e-07 | 8.5e-08 | 1.7e-07 |
| – | – | – | CCn1c(=O)c(=CNc2ccc3c(c2)c(C2CCN(C4CC4)CC2)cn3C)s/c1=C(/C#N)C(=O)NCC(F)(F)F [B123] | 1.2e-08 | 6.2e-07 | 2.3e-07 | 5e-07 |
| – | – | – | CCn1c(=O)c(=CNc2ccc3c(C4CCN(C)CC4)cn(C)c3c2)s/c1=C(/C#N)C(=O)NCC#N [B130] | 1e-09 | 1.4e-07 | 8.4e-08 | 3.7e-07 |
| – | – | – | CCn1c(=C(C#N)C(=O)NCC(F)(F)F)sc(=CNc2ccc3ccn(CCN4CCCC4)c3c2)c1=O [B132] | 3.3e-09 | 4.5e-07 | 2.2e-07 | 4e-07 |
| – | – | – | CCn1c(=O)c(=CNc2ccc3ncn(C4CCN(C)CC4)c3c2)s/c1=C(/C#N)C(=O)NCC(F)(F)F [B147] | 3.1e-09 | 2.4e-07 | 1.3e-07 | 2.4e-07 |
| – | – | – | CCn1c(=O)c(=CNc2ccc3c(Cl)cn(C4CCN(C)CC4)c3c2)s/c1=C(/C#N)C(=O)NCC#N [B153] | 1e-09 | 4.2e-07 | 1.4e-07 | 5.9e-07 |
| – | – | – | CCn1c(=O)c(=CNc2ccc3ccn(C4CC(C)(C)N(C)C(C)(C)C4)c3c2)s/c1=C(/C#N)C(=O)NCC#N [B162] | 3.7e-09 | 1.4e-07 | 3.5e-08 | 3.7e-08 |
| – | – | – | CCn1c(=O)c(=CNc2ccc3c(Cl)cn([C@H]4CC[C@H](N(C)C)CC4)c3c2)s/c1=C(/C#N)C(=O)NCC#N [B165] | 1.3e-09 | 1.7e-07 | 1.8e-07 | 6.1e-07 |
| – | – | – | CCn1c(=O)c(=CNc2ccc3ccn(C4CCN(C)CC4)c3c2)s/c1=C(/C#N)C(=O)NC(c1ccco1)C(F)(F)F (stereo not drawn) [B176] | 6.2e-08 | 1.2e-07 | 2.1e-07 | 3.9e-07 |
| – | – | – | CCn1c(=O)c(=CNc2ccc3c(C(=O)C(C)(C)C)cn(C4CCN(C)CC4)c3c2)s/c1=C(/C#N)C(=O)NCC#N [B183] | 4.2e-09 | 1.6e-07 | 1.3e-07 | 3.2e-07 |
